Data from PubChem BioAssay (NCI).
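Grown in 96-well plates, cells were treated for 48 hours with each compound at five concentrations. Insufficient inhibition: endpoint recorded as highest concentration tested. TGI denotes the concentration required for complete inhibition of growth.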

Columns and labels:
Experiment in all cases: DTP human tumour cell line panel, 48 h
TK-10 renal = test system: TK-10 renal
SF-268 CNS = test system: SF-268 CNS
HT29 colon = test system: HT29 colon
HCT-15 colon = test system: HCT-15 colon
NCI-H23 lung = test system: NCI-H23 lung
NCI-H460 lung = test system: NCI-H460 lung
OVCAR-5 ovarian = test system: OVCAR-5 ovarian
SN12C renal = test system: SN12C renal
SW-620 colon = test system: SW-620 colon
MDA-MB-435 = test system: MDA-MB-435
HOP-92 NSCLC = test system: HOP-92 NSCLC
NCI-H226 lung = test system: NCI-H226 lung
PC-3 prostate = test system: PC-3 prostate
SK-MEL-28 melanoma = test system: SK-MEL-28 melanoma
MCF7 breast = test system: MCF7 breast
SR leukemia = test system: SR leukemia
UO-31 renal = test system: UO-31 renal
T-47D breast = test system: T-47D breast
KM12 colon = test system: KM12 colon
UACC-62 melanoma = test system: UACC-62 melanoma
CAKI-1 renal = test system: CAKI-1 renal
HOP-62 NSCLC = test system: HOP-62 NSCLC
HL-60(TB) leukemia = test system: HL-60(TB) leukemia
BT-549 breast = test system: BT-549 breast
SK-OV-3 ovarian = test system: SK-OV-3 ovarian
MDA-N = test system: MDA-N
HCT-116 colon = test system: HCT-116 colon
A549 NSCLC = test system: A549 NSCLC
M14 melanoma = test system: M14 melanoma
K-562 leukemia = test system: K-562 leukemia
UACC-257 melanoma = test system: UACC-257 melanoma
SF-539 CNS = test system: SF-539 CNS
SK-MEL-2 melanoma = test system: SK-MEL-2 melanoma
OVCAR-8 ovarian = test system: OVCAR-8 ovarian
A498 renal = test system: A498 renal
U251 CNS = test system: U251 CNS
HS 578T breast = test system: HS 578T breast
SNB-19 CNS = test system: SNB-19 CNS
EKVX NSCLC = test system: EKVX NSCLC
NCI-H522 lung = test system: NCI-H522 lung
NCI/ADR-RES ovarian = test system: NCI/ADR-RES ovarian
ACHN renal = test system: ACHN renal
MDA-MB-231 breast = test system: MDA-MB-231 breast
LOX IMVI melanoma = test system: LOX IMVI melanoma
SF-295 CNS = test system: SF-295 CNS
HCC-2998 colon = test system: HCC-2998 colon
786-0 renal = test system: 786-0 renal
RPMI-8226 leukemia = test system: RPMI-8226 leukemia
COLO 205 colon = test system: COLO 205 colon
RXF 393 renal = test system: RXF 393 renal
MOLT-4 leukemia = test system: MOLT-4 leukemia
OVCAR-4 ovarian = test system: OVCAR-4 ovarian
SNB-75 CNS = test system: SNB-75 CNS
SK-MEL-5 melanoma = test system: SK-MEL-5 melanoma
CCRF-CEM leukemia = test system: CCRF-CEM leukemia
IGROV1 ovarian = test system: IGROV1 ovarian
OVCAR-3 ovarian = test system: OVCAR-3 ovarian
DU-145 prostate = test system: DU-145 prostate
MALME-3M melanoma = test system: MALME-3M melanoma
KM20L2 colon = test system: KM20L2 colon
M19-MEL melanoma = test system: M19-MEL melanoma
XF 498 CNS = test system: XF 498 CNS
DLD-1 colon = test system: DLD-1 colon
SNB-78 CNS = test system: SNB-78 CNS
LXFL 529 NSCLC = test system: LXFL 529 NSCLC

## Oc1ccc(N=Nc2ccc(Cl)cc2)cc1
TK-10 renal
  TGI: 33.8 µM
SF-268 CNS
  TGI: 34.5 µM
HT29 colon
  TGI: 32.2 µM
HCT-15 colon
  TGI: 32.8 µM
NCI-H23 lung
  TGI: 32.3 µM
NCI-H460 lung
  TGI: 34.2 µM
OVCAR-5 ovarian
  TGI: 32.2 µM
SN12C renal
  TGI: 31.2 µM
SW-620 colon
  TGI: > 100 µM
MDA-MB-435
  TGI: 29 µM
HOP-92 NSCLC
  TGI: 29.2 µM
NCI-H226 lung
  TGI: 35.6 µM
PC-3 prostate
  TGI: 29.3 µM
SK-MEL-28 melanoma
  TGI: 54.1 µM
MCF7 breast
  TGI: 35.9 µM
SR leukemia
  TGI: 54.8 µM
UO-31 renal
  TGI: 27.7 µM
T-47D breast
  TGI: 67.4 µM
KM12 colon
  TGI: 28.2 µM
UACC-62 melanoma
  TGI: 36.4 µM
CAKI-1 renal
  TGI: 36.6 µM
HOP-62 NSCLC
  TGI: 35.6 µM
HL-60(TB) leukemia
  TGI: 52.3 µM
BT-549 breast
  TGI: 32.6 µM
SK-OV-3 ovarian
  TGI: 47.3 µM
MDA-N
  TGI: 30.6 µM
HCT-116 colon
  TGI: 29.4 µM
A549 NSCLC
  TGI: 31.3 µM
M14 melanoma
  TGI: 23.3 µM
K-562 leukemia
  TGI: 55.7 µM
UACC-257 melanoma
  TGI: 31.5 µM
SF-539 CNS
  TGI: 36.7 µM
SK-MEL-2 melanoma
  TGI: 28.4 µM
OVCAR-8 ovarian
  TGI: 38.2 µM
A498 renal
  TGI: 41 µM
U251 CNS
  TGI: 29.7 µM
HS 578T breast
  TGI: 73.3 µM
SNB-19 CNS
  TGI: 34.3 µM
EKVX NSCLC
  TGI: 31.8 µM
NCI-H522 lung
  TGI: 25 µM
NCI/ADR-RES ovarian
  TGI: 51.3 µM
ACHN renal
  TGI: 27.7 µM
MDA-MB-231 breast
  TGI: 24.3 µM
LOX IMVI melanoma
  TGI: 24.6 µM
SF-295 CNS
  TGI: 34.6 µM
HCC-2998 colon
  TGI: 29.8 µM
786-0 renal
  TGI: 31.5 µM
RPMI-8226 leukemia
  TGI: 80.4 µM
COLO 205 colon
  TGI: 33.4 µM
RXF 393 renal
  TGI: 30.3 µM
MOLT-4 leukemia
  TGI: 51.7 µM
OVCAR-4 ovarian
  TGI: 61 µM
SNB-75 CNS
  TGI: 46.1 µM
SK-MEL-5 melanoma
  TGI: 24.1 µM
CCRF-CEM leukemia
  TGI: > 100 µM
IGROV1 ovarian
  TGI: 29.3 µM
OVCAR-3 ovarian
  TGI: 55 µM
DU-145 prostate
  TGI: 30.8 µM

## O=C(Nc1cccc(-c2cn3ccccc3n2)c1)c1ccncc1
TK-10 renal
  TGI: > 100 µM
SF-268 CNS
  TGI: > 100 µM
HT29 colon
  TGI: > 100 µM
HCT-15 colon
  TGI: > 100 µM
NCI-H23 lung
  TGI: 65 µM
NCI-H460 lung
  TGI: 39 µM
OVCAR-5 ovarian
  TGI: > 100 µM
SN12C renal
  TGI: > 100 µM
SW-620 colon
  TGI: > 100 µM
MDA-MB-435
  TGI: > 100 µM
HOP-92 NSCLC
  TGI: > 100 µM
NCI-H226 lung
  TGI: > 100 µM
PC-3 prostate
  TGI: > 100 µM
SK-MEL-28 melanoma
  TGI: > 100 µM
MCF7 breast
  TGI: > 100 µM
SR leukemia
  TGI: 71.7 µM
UO-31 renal
  TGI: > 100 µM
T-47D breast
  TGI: 79.6 µM
KM12 colon
  TGI: > 100 µM
UACC-62 melanoma
  TGI: 42.2 µM
CAKI-1 renal
  TGI: > 100 µM
HOP-62 NSCLC
  TGI: > 100 µM
HL-60(TB) leukemia
  TGI: 45.8 µM
BT-549 breast
  TGI: 72 µM
SK-OV-3 ovarian
  TGI: > 100 µM
MDA-N
  TGI: > 100 µM
HCT-116 colon
  TGI: > 100 µM
A549 NSCLC
  TGI: > 100 µM
M14 melanoma
  TGI: > 100 µM
K-562 leukemia
  TGI: 61 µM
UACC-257 melanoma
  TGI: 73.5 µM
SF-539 CNS
  TGI: > 100 µM
SK-MEL-2 melanoma
  TGI: 46.5 µM
OVCAR-8 ovarian
  TGI: > 100 µM
A498 renal
  TGI: > 100 µM
U251 CNS
  TGI: > 100 µM
HS 578T breast
  TGI: > 100 µM
SNB-19 CNS
  TGI: > 100 µM
EKVX NSCLC
  TGI: > 100 µM
NCI-H522 lung
  TGI: 72.4 µM
NCI/ADR-RES ovarian
  TGI: 65.1 µM
ACHN renal
  TGI: > 100 µM
MDA-MB-231 breast
  TGI: 98.7 µM
LOX IMVI melanoma
  TGI: > 100 µM
SF-295 CNS
  TGI: > 100 µM
HCC-2998 colon
  TGI: > 100 µM
786-0 renal
  TGI: > 100 µM
RPMI-8226 leukemia
  TGI: 39.7 µM
COLO 205 colon
  TGI: 88.8 µM
RXF 393 renal
  TGI: > 100 µM
MOLT-4 leukemia
  TGI: 52.6 µM
OVCAR-4 ovarian
  TGI: > 100 µM
SNB-75 CNS
  TGI: > 100 µM
SK-MEL-5 melanoma
  TGI: 71.4 µM
CCRF-CEM leukemia
  TGI: 82.5 µM
MALME-3M melanoma
  TGI: > 100 µM
IGROV1 ovarian
  TGI: > 100 µM
OVCAR-3 ovarian
  TGI: > 100 µM
DU-145 prostate
  TGI: > 100 µM

## CCOC(=O)C(C(=O)Cc1ccccc1)c1ccccc1 (centres undefined)
TK-10 renal
  TGI: > 100 µM
SF-268 CNS
  TGI: > 100 µM
HT29 colon
  TGI: > 100 µM
HCT-15 colon
  TGI: > 100 µM
NCI-H23 lung
  TGI: > 100 µM
NCI-H460 lung
  TGI: > 100 µM
OVCAR-5 ovarian
  TGI: > 100 µM
SN12C renal
  TGI: > 100 µM
SW-620 colon
  TGI: > 100 µM
HOP-92 NSCLC
  TGI: > 100 µM
NCI-H226 lung
  TGI: > 100 µM
SK-MEL-28 melanoma
  TGI: > 100 µM
KM20L2 colon
  TGI: > 100 µM
SR leukemia
  TGI: > 100 µM
UO-31 renal
  TGI: > 100 µM
KM12 colon
  TGI: > 100 µM
UACC-62 melanoma
  TGI: > 100 µM
CAKI-1 renal
  TGI: > 100 µM
HOP-62 NSCLC
  TGI: > 100 µM
HL-60(TB) leukemia
  TGI: > 100 µM
SK-OV-3 ovarian
  TGI: > 100 µM
HCT-116 colon
  TGI: > 100 µM
A549 NSCLC
  TGI: > 100 µM
M14 melanoma
  TGI: > 100 µM
K-562 leukemia
  TGI: > 100 µM
UACC-257 melanoma
  TGI: > 100 µM
SF-539 CNS
  TGI: > 100 µM
SK-MEL-2 melanoma
  TGI: > 100 µM
OVCAR-8 ovarian
  TGI: > 100 µM
U251 CNS
  TGI: > 100 µM
M19-MEL melanoma
  TGI: > 100 µM
SNB-19 CNS
  TGI: > 100 µM
EKVX NSCLC
  TGI: > 100 µM
NCI-H522 lung
  TGI: > 100 µM
XF 498 CNS
  TGI: > 100 µM
ACHN renal
  TGI: > 100 µM
DLD-1 colon
  TGI: > 100 µM
SNB-78 CNS
  TGI: > 100 µM
LOX IMVI melanoma
  TGI: > 100 µM
SF-295 CNS
  TGI: > 100 µM
786-0 renal
  TGI: > 100 µM
RPMI-8226 leukemia
  TGI: > 100 µM
COLO 205 colon
  TGI: > 100 µM
MOLT-4 leukemia
  TGI: > 100 µM
OVCAR-4 ovarian
  TGI: > 100 µM
SNB-75 CNS
  TGI: > 100 µM
SK-MEL-5 melanoma
  TGI: > 100 µM
LXFL 529 NSCLC
  TGI: > 100 µM
CCRF-CEM leukemia
  TGI: > 100 µM
MALME-3M melanoma
  TGI: > 100 µM
IGROV1 ovarian
  TGI: > 100 µM
OVCAR-3 ovarian
  TGI: > 100 µM
